Where two headings read alike, the source gives them in different places.
Legend:
[1] = test system: HEK cells expressing SMVT; assay: Effect of treatment on the creatine kinase system (intracellular creatine phosphate, ATP, creatine); assay type: cell-based, human; details: 100 μM, relative to buffer
[2] = cited from earlier work
HEK293 cells = assay: Restoration of cellular energy homeostasis following sodium azide treatment; assay type: cell-based, human; details: azide 20 minutes, then compound or control media 20 minutes; FIG. 12
H9C2 cells = assay type: cell-based, rat
[3] = cited from earlier work; remark: listed apart in the source
[4] = healthy volunteers, oral creatine administration; cited from earlier work
[5] = animals fed a diet containing up to 1%; cited from earlier work

SMILES | Percent Increase in Intracellular Concentrations, ATP ([1]; After 1 Hour) [%] | Percent Increase in Intracellular Concentrations, Creatine ([1]; After 1 Hour) [%] | Percent Increase in Intracellular Concentrations, Creatine Phosphate ([1]; After 1 Hour) [%] | Percent Increase in Intracellular Concentrations, ATP ([1]; After 3 Hours) [%] | Percent Increase in Intracellular Concentrations, Creatine ([1]; After 3 Hours) [%] | Percent Increase in Intracellular Concentrations, Creatine Phosphate ([1]; After 3 Hours) [%] | Adverse side effects ([2]; patients with cardiac diseases, intravenous injection up to 8 gm/day) | Reversal of azide-induced ATP depletion (HEK293 cells) | Protection against 3-NP toxicity (ATP luminescence) (H9C2 cells) | Duration of increases in tissue creatine phosphate levels ([3]; following oral creatine supplementation) [days] | Overall increase in creatine phosphate levels by creatine supplementation ([3]; supplementation typically takes weeks) [%] | Increase of cerebral creatine phosphate [4] | Adverse side effects ([2]; athletes and body builders, 2-3 gm/day) | Adverse effects [5]
CN(CC(=O)O)C(=N)NP(=O)(O)O [Creatine Phosphate, creatine phosphate] | 27 | −6 | 15 | 10 | 0 | 5 | without adverse side effects |  |  |  |  |  |  | 
CN(CC(=O)O)C(=N)N [Creatine, creatine] | 5 | 8 | 26 | −5 | 40 | 30 |  | not protective | not | > 14 | < 50 | about 10% |  | 
CN(CC(=O)O)C(=N)N.O [creatine monohydrate] |  |  |  |  |  |  |  |  |  |  |  |  | without adverse side effects | 
NC1=NCCN1CC(=O)O [cyclocreatine] |  |  |  |  |  |  |  |  |  |  |  |  |  | do not exhibit adverse effects

From patent US20070281909A1, “Creatine phosphate prodrugs, compositions and uses thereof” (XenoPort, Inc., priority 2006, published 2007)
